In patent US20070174925A1, “Treatment models and uses thereof” (priority 2003, published 2007):

Legend:
[1] = test system: zebrafish; assay: DMSO tolerance of zebrafish; format: in vivo; conditions: final concentration in fish water
Description: A further advantage of zebrafish is the fact they live in water. This makes administration of candidate chemicals easy. Moreover, the inventors have discovered that zebrafish are also DMSO tolerant. This is important as many drugs are dissolved in DMSO. The inventors have established that zebrafish can tolerate 1% DMSO. Thus, a candidate drug or other test substance may be dissolved in DMSO and administered to zebrafish by adding to the fish water to give a final concentration of DMSO of at least up to 1%. This is employed in various preferred aspects and embodiments of the present invention.

[2] = test system: larval zebrafish; assay: temperature gradient assay of thermal nociception; format: in vivo; conditions: for location of fish in temperature gradient versus control fish: fish less than 10 days old, opiate 1 ug/ml or cannabinoid 5 ug/ml in water for 30 minutes at 28° C. before testing, t=10 mins
Description: 1. The ambient environment was prepared through the use of an air handling system to maintain a constant air temperature below 24° C., enabling maintenance of a stable water gradient.
2. A shallow tray was taken of dimensions 2 cm deep, 30 cm long and 20 cm wide. This was filled with oxygenated water from the aquarium, the composition of which is suitable sustain zebrafish. This water was cooled to less than the lowest temperature desired in the gradient.
3. The tray was placed on top of two heating plates: a hot plate, capable of heating to high temperatures, and a hot block. The heights of the blocks were adjusted so that when the tray is placed on top of them the tray lies flat (FIG. 1). It was important to ensure the heating surfaces were symmetrically located under the long axis of the tray to ensure equal heating of both longitudinal halves of the tray.
4. A transparent 30 cm ruler was placed on top of the tray and the boundaries of 4 quadrants marked on it: 0-7.5 cm, 7.5-15 cm, 15-22.5 cm and 22.5-30 cm (FIGS. 2 and 8). These serve to split the gradient up into areas as a means of summarizing temperature choice.
5. Aluminum foil was used to make channels for the fish to swim in. These were water tight and closed at one end and open at the other. […] The open end is necessary so that as water evaporates from the hot end the channels don't dry up. They were then placed in the water with the closed end at the cool end. They were then filled with water. The channels were in the middle of the tray, i.e. not closer to one long side of the tray than the other.
6. The hotplate and hotblock were turned on to achieve a temperature of about 40° C. maintained at the hot end, with the unheated end reaching only 24° C. To measure the temperature at each quadrant boundary, thermometers were placed near the channels at each boundary.
7. When a stable gradient was achieved, fish were taken directly from the fish room (28° C.). As much of the liquid around them as possible was removed. […]
9. At 2, 5 and 10 minutes, the number of fish in each quadrant was counted. […]

[3] = test system: fish sensitized with DNCB; assay: DNCB-induced hyperalgesia and its rescue, temperature gradient assay; format: in vivo, zebrafish; conditions: same DNCB-sensitized fish treated with an opiate and retested; t=5 mins

Structure (SMILES) | concentration tolerated by zebrafish [1] | location of fish in temperature gradient versus control fish [2] | location of three week old fish in temperature gradient versus untreated fish ([2]; three week old fish treated with an opiate) | distribution in gradient of DNCB-sensitized fish after treatment and retest (rescue of hyperalgesia) [3]
C[S+](C)[O-] [DMSO] | 1% |  |  | 
CCCCC/C=C\C/C=C\C/C=C\C/C=C\CCCC(=O)NCCO [endogenous cannabinoid, Anandamide] |  | less aversion to higher temperatures |  | 
COC(=O)N1CCN(C(=O)Cc2ccc(Cl)c(Cl)c2)C(CN2CCCC2)C1.O=C(O)/C=C/C(=O)O (centres unmarked) [opiate, GR 89696 Fumerate] |  | more often found in water of a higher temperature than control fish | locate to regions of a higher temperature than untreated fish | lose this sensitivity, and their distribution becomes randomized in the gradient
